Experiments:
Assay type in all cases: functional
Conditions in all cases: Homo sapiens
[1] = tested on: IGROV-1; experiment: Growth inhibition against IGROVI (ovarian cancer) cell line using SRB protein cytotoxicity assay
[2] = tested on: SF-268; experiment: Growth inhibition against SF-268 cancer cell line using SRB protein cytotoxicity assay
[3] = tested on: NCI/ADR-RES; experiment: Growth inhibition against NCI/ADR-RES (breast cancer) cell line using SRB protein cytotoxicity assay
[4] = tested on: SNB-75; experiment: Growth inhibition against SNB-75 (CNS cancer) cell line using SRB protein cytotoxicity assay
[5] = tested on: KM12; experiment: Growth inhibition against KM12 (colon cancer) cancer cell line using SRB protein cytotoxicity assay

Row | Compound | GI50 [1] [µM] | GI50 [2] [µM] | GI50 [3] [µM] | GI50 [4] [µM] | GI50 [5] [µM]
1 | CCOC(=O)c1cnc2oc3ccc(O)cc3c2c1-c1ccccc1 | 2.5 | 29.7 | 4.7 | 16.5 | 5.1
2 | CC(=O)c1cnc2oc3ccc(O)cc3c2c1-c1ccccc1 | 5 | 27.7 | 19.6 | 2.6 | 40.8
3 | CCOC(=O)c1cnc2oc3ccc(O)cc3c2c1C | 86 | 69.9 | 41 | 26 | 70.3
4 | CC(=O)c1cnc2oc3ccc(O)cc3c2c1C | – | > 100 | – | – | –

Reference: ChEMBL document CHEMBL1135041, “Synthesis and first biological evaluation of 1-aza-9-oxafluorenes as novel lead structures for the development of small-sized cytostatics” (2002)
